According to ChEMBL document CHEMBL1144455, “A small molecule-kinase interaction map for clinical kinase inhibitors” (Nat Biotechnol, 2005):

Legend:
[1] = target: Activated CDC42 kinase 1 (Homo sapiens, UniProt Q07912)
[2] = target: Phosphorylase b kinase gamma catalytic chain, skeletal muscle/heart isoform (Homo sapiens, UniProt Q16816)
[3] = target: T1, Serine/threonine-protein kinase 17A (Homo sapiens, UniProt Q9UEE5)
T1 sequence (Q9UEE5 whole entry): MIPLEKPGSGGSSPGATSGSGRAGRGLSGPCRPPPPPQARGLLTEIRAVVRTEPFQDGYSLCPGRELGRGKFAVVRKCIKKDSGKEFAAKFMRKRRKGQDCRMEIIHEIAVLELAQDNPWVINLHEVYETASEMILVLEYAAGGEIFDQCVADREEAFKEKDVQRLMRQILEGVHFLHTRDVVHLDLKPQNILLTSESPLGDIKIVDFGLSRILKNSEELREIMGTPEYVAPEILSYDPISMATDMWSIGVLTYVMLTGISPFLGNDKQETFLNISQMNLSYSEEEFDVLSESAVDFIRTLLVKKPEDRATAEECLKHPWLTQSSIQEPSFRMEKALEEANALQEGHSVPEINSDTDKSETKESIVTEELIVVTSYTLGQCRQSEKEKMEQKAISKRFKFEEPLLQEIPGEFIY

[4] = target: MAP kinase-interacting serine/threonine-protein kinase 2 (Homo sapiens, UniProt Q9HBH9)
[5] = target: Casein kinase I isoform gamma-1 (Homo sapiens, UniProt Q9HCP0)
Chain of Casein kinase I isoform gamma-1 (Q9HCP0 whole entry, canonical isoform): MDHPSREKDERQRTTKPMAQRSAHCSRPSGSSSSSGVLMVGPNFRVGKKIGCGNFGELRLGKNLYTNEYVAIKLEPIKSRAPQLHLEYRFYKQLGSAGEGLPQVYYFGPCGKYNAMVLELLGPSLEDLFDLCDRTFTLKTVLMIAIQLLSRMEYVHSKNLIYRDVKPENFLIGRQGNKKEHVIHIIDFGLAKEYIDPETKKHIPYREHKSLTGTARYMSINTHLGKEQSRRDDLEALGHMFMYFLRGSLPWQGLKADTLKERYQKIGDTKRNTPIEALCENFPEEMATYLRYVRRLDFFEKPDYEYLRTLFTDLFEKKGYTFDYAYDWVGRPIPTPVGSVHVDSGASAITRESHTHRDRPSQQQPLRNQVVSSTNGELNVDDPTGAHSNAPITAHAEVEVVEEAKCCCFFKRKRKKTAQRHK

Chain of Activated CDC42 kinase 1 (Q07912 whole entry, canonical isoform): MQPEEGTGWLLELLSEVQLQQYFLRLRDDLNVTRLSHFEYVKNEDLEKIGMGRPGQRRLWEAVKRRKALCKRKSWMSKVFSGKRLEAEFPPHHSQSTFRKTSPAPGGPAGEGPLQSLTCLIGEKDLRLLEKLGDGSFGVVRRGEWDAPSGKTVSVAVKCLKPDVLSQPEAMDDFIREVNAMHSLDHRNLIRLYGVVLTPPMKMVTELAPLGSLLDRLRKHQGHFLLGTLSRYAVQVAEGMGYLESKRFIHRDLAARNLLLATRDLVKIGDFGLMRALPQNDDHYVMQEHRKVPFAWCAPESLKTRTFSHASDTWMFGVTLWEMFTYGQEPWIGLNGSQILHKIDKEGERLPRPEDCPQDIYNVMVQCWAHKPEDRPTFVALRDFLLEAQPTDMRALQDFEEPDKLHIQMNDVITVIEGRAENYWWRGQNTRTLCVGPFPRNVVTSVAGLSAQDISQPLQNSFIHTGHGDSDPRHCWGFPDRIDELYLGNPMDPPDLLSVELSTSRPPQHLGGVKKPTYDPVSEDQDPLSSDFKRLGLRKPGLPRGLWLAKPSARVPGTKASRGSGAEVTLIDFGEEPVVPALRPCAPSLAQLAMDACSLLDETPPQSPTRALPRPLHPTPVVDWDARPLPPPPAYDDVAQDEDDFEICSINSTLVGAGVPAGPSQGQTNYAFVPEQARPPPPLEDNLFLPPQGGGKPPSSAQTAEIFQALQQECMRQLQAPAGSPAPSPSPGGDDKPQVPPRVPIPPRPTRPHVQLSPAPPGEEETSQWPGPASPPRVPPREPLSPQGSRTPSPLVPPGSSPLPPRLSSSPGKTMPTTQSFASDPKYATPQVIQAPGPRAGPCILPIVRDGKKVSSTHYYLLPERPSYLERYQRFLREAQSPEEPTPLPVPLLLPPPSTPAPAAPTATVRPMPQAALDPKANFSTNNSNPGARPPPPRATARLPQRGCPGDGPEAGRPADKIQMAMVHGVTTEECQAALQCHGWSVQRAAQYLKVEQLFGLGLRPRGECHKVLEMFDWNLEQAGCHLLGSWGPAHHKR
Chain of Phosphorylase b kinase gamma catalytic chain, skeletal muscle/heart isoform (Q16816 whole entry, canonical isoform): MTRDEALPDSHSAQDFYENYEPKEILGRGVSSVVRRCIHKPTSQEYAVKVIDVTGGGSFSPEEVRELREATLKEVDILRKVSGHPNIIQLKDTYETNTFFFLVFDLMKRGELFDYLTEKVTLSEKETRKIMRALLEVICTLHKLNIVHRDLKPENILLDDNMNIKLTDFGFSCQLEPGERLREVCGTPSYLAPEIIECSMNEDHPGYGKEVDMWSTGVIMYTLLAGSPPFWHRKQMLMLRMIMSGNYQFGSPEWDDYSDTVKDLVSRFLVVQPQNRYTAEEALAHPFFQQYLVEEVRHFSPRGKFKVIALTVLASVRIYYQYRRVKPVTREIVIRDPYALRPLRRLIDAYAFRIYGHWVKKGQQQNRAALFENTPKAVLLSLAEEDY
Chain of MAP kinase-interacting serine/threonine-protein kinase 2 (Q9HBH9 whole entry, canonical isoform): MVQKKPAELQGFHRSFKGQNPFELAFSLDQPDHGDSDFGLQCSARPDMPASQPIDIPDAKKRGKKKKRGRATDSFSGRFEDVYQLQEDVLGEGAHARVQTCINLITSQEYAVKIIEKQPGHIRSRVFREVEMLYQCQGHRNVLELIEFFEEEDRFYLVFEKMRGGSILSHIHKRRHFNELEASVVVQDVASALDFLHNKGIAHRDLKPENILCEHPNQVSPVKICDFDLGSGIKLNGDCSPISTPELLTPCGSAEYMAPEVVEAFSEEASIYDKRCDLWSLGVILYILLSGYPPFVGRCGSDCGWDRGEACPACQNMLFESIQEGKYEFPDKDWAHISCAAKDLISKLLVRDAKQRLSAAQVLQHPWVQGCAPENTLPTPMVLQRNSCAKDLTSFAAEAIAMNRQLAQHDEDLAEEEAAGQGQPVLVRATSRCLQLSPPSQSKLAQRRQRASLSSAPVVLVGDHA

In the case of `CCOc1cc2ncc(C#N)c(Nc3ccc(F)c(Cl)c3)c2cc1NC(=O)/C=C/CN(C)C` [PELITINIB], the Kd [1] is reported as 890 nM and the Kd [2] is reported as 1500 nM.

`Oc1c2ccccc2c2c3c(cccc13)N=N2` [SP-600125] was tested, and the Kd [3] was 2100 nM, the Kd [4] was 1000 nM and the Kd [5] was 3700 nM.
